# Structures can show the parent of a compound that is named as a salt. Where two headings read alike, the source gives them in different places.
# Columns and labels:
# [1] = test system: H37RvMA; assay: Tuberculosis Alamar Blue/Resazurin assay (MIC); assay type: cell-based; details: Mycobacterium tuberculosis, H37RV, read-out: WT H37Rv MTB Activity
# [2] = test system: A. baumannii; assay: Gram negative MIC protocol (OD600, LB, 24 h); details: Acinetobacter baumannii
# Procedure: (§1) Overnight bacterial cultures were grown in LB with no added antibiotics at 37° C. with shaking. A 1:1000 dilution of these cultures into LB was exposed to concentration gradients of compounds in 96-well plates (100 μL per well assay volume). Resulting plates were incubated at 37° C. for 24 h without shaking, and OD600 was measured at the end of the incubation. MICs were determined as the lowest concentrations at which OD600 remained at baseline.
# [3] = test system: E. coli; assay: Gram negative MIC protocol (OD600, LB, 24 h); details: Escherichia coli
# Procedure: as §1
# [4] = read-out: MIC A. baumannii LB Media, A. baumannii, LB media, 24 h, OD600
# [5] = read-out: MIC E. coli delta-TolC LB Media, E. coli delta-TolC, LB media, OD600
# [6] = read-out: MIC WT E. coli LB Media, WT E. coli, LB media, OD600
# [7] = read-out: MIC E. coli delta-TolC LB Media, E. coli delta-TolC strain, LB media, 24 h, OD600
# [8] = read-out: MIC WT E. coli LB Media, wild-type E. coli, LB media, 24 h, OD600
# [9] = read-out: MIC A. baumannii LB Media
SMILES,MIC ([1]; WT H37Rv MTB),"MIC [2, 4]","MIC [3, 5]","MIC [3, 6]","MIC [3, 7]","MIC [3, 8]",MIC [1],"MIC [2, 9]"
CC(C)(CNCc1ccccc1)C1=CCCC1 [B74],> 150 µM,> 150 µM,> 150 µM,> 150 µM,–,–,–,–
"c1ccc(OCC2CCCCO2)c(CNCCC2CCCCC2)c1 (centres unmarked) [B328, 2-cyclohexyl-N-(2-((tetrahydro-2H-pyran-2-yl)methoxy)benzyl)ethanamine hydrochloride]",150 µM,> 150 µM,–,–,55 µM,> 150 µM,–,–
COC(=O)C(C)Oc1ccccc1CNC(C)CC1CCCCC1 (centres unmarked) [B327],> 150 µM,> 150 µM,–,–,7 µM,> 150 µM,–,–
CC1CC(C)CC(C(C)NCc2ccccc2)C1 (centres unmarked) [B79],91 µM,> 150 µM,> 150 µM,> 150 µM,–,–,–,–
"CC(CC1CCCCC1)NCc1ccccc1CS(=O)(=O)N[C@H](C)C(=O)O (stereo partly drawn) [B455, ((2-(((1-cyclohexylpropan-2-yl)amino)methyl)benzyl)sulfonyl)-D-alanine]",> 150 µM,> 150 µM,91 µM,> 150 µM,–,–,–,–
CC(Cc1ccn(C(C)C)n1)NCc1ccccc1 (centres unmarked) [B47],–,> 150 µM,> 150 µM,> 150 µM,–,–,> 150 µM,–
Cc1nc(COc2ccccc2CNC(C)CC2CCCCC2)oc1C (centres unmarked) [B246],91 µM,> 150 µM,–,–,12 µM,> 150 µM,–,–
c1cc(CNCCC2CCCCC2)c2[nH]ccc2c1 [B352],91 µM,150 µM,–,–,91 µM,91 µM,–,–
c1ccc(CNCCN2CCCCC2)cc1 [B223],> 150 µM,> 300 µM,–,–,> 150 µM,> 300 µM,–,–
"NC(=O)C(CC1CCCCC1)NCc1ccccc1 (centres unmarked) [B205, 2-(benzylamino)-3-cyclohexylpropanamide hydrochloride]",> 150 µM,> 300 µM,–,–,> 300 µM,> 300 µM,–,–
COC(=O)c1ccoc1COc1ccccc1CNC(C)CC1CCCCC1 (centres unmarked) [B267],91 µM,> 150 µM,–,–,7 µM,> 150 µM,–,–
CC(CC1CCCCC1)NCc1ccccc1OCCCS(C)(=O)=O (centres unmarked) [B299],> 150 µM,150 µM,–,–,4 µM,150 µM,–,–
"Cc1cccc(CNCCC2=CCCCC2)c1 [B11, 2-(cyclohex-1-en-1-yl)-N-(3-methylbenzyl)ethan-1-amine]",> 150 µM,> 150 µM,> 150 µM,> 150 µM,–,–,–,–
c1ccc(CCNCc2ccccc2)cc1 [B181],–,–,> 300 µM,> 300 µM,–,–,> 150 µM,> 300 µM
"CC(CC1CCCCC1)NCc1ccccc1CS(=O)(=O)NCC(=O)O (centres unmarked) [B448, ((2-(((1-cyclohexylpropan-2-yl)amino)methyl)benzyl)sulfonyl)glycine]",> 150 µM,> 150 µM,> 150 µM,> 150 µM,–,–,–,–
c1ccc(CNCCc2ccc3cn[nH]c3c2)cc1 [B58],> 150 µM,> 150 µM,> 150 µM,> 150 µM,–,–,–,–
CC(CC1CCCCC1)NCc1ccccc1OCC(=O)NCC1CC1 (centres unmarked) [B284],> 150 µM,> 150 µM,–,–,7 µM,> 150 µM,–,–
c1ccc(CNCC2Cc3ccccc32)cc1 (centres unmarked) [B22],> 150 µM,> 150 µM,> 150 µM,> 150 µM,–,–,–,–
Nc1cccc(CNCCC2CCCCC2)c1 [B366],> 150 µM,> 150 µM,–,–,150 µM,150 µM,–,–
CC(Cc1ncccn1)NCc1ccccc1 (centres unmarked) [B82],–,> 150 µM,> 150 µM,> 150 µM,–,–,> 150 µM,–
CC(CC1CCCCC1)NCc1ccccc1OCC(=O)N1CC(C)OC(C)C1 (centres unmarked) [B333],> 150 µM,> 150 µM,–,–,7 µM,> 150 µM,–,–

SMILES,MIC ([1]; WT H37Rv MTB),"MIC [2, 4]","MIC [3, 5]","MIC [3, 6]","MIC [3, 7]","MIC [3, 8]",MIC [1],"MIC [2, 9]"
CCCCCCCCNCc1ccccc1 [B150],> 150 µM,> 150 µM,> 150 µM,> 150 µM,–,–,–,–
OC[C@@H](Cc1ccccc1)NCc1ccccc1 [B173],> 150 µM,> 300 µM,> 300 µM,> 300 µM,–,–,–,–
OC(CNCc1ccccc1)c1cccc2ccccc12 (centres unmarked) [B193],150 µM,300 µM,300 µM,> 300 µM,–,–,–,–
COc1ccc2cccc(CCNCc3ccccc3)c2c1 [B199],150 µM,170 µM,–,–,170 µM,> 300 µM,–,–
CC(CC1CCCCC1)NCc1ccccc1OCC1CNC(=O)O1 (centres unmarked) [B377],> 150 µM,150 µM,–,–,2.3 µM,75 µM,–,–
COC(=O)C1CCCCC1CCNCc1ccccc1 (centres unmarked) [B185],> 150 µM,> 300 µM,> 300 µM,> 300 µM,–,–,–,–
CC(Cc1ccccc1)NCc1ccccc1 (centres unmarked) [B8],–,–,> 150 µM,> 150 µM,–,–,> 150 µM,> 150 µM
CC(CC1CCCCC1)NCc1ccccc1OCC(=O)NC(N)=O (centres unmarked) [B335],> 150 µM,150 µM,–,–,4 µM,55 µM,–,–
"CC1CCCC(Oc2ccccc2CNC(C)CC2CCCCC2)C1 (centres unmarked) [B391, 1-cyclohexyl-N-(2-((3-methylcyclohexyl)oxy)benzyl)propan-2-amine]",20.2 µM,91 µM,–,–,3 µM,150 µM,–,–
Clc1cc(CCNCc2ccccc2)cc2c1OCCO2 [B55],–,–,> 150 µM,> 150 µM,–,–,150 µM,> 150 µM
"COC(=O)CCc1ccccc1CNC(C)CC1CCCCC1 (centres unmarked) [B400, methyl 3-(2-((1-cyclohexylpropan-2-ylamino)methyl)phenyl)propanoate hydrochloride]",> 150 µM,> 150 µM,55 µM,> 150 µM,–,–,–,–
"CC(CC1CCCCC1)NCc1cccc2ccn(Cc3ccccc3)c12 (centres unmarked) [B423, N-((1-benzyl-1H-indol-7-yl)methyl)-1-cyclohexylpropan-2-amine]",150 µM,> 150 µM,55 µM,> 150 µM,–,–,–,–
NCc1cccc(CNCCC2CCCCC2)c1 [B355],> 150 µM,> 150 µM,–,–,> 150 µM,> 150 µM,–,–
c1ccc(CNC2CC23CCCCC3)cc1 (centres unmarked) [B125],> 150 µM,> 150 µM,> 150 µM,> 150 µM,–,–,–,–
COCC(C)NC(=O)NC(=O)COc1ccccc1CNC(C)CC1CCCCC1 (centres unmarked) [B308],> 150 µM,150 µM,–,–,4 µM,> 150 µM,–,–
COC(=O)c1cc(COc2ccccc2CNC(C)CC2CCCCC2)oc1C (centres unmarked) [B272],150 µM,> 150 µM,–,–,12 µM,> 150 µM,–,–
c1cc(CNCCC2CCCCC2)c2c(c1)OCO2 [B374],150 µM,> 150 µM,–,–,> 150 µM,> 150 µM,–,–
CC(Cc1ccccn1)NCc1ccccc1 (centres unmarked) [B75],–,> 150 µM,> 150 µM,> 150 µM,–,–,> 150 µM,–
"COCCNS(=O)(=O)Cc1ccccc1CNC(C)CC1CCCCC1 (centres unmarked) [B434, 1-(2-(((1-cyclohexylpropan-2-yl)amino)methyl)phenyl)-N-(2-methoxyethyl) methanesulfonamide]",> 150 µM,150 µM,4 µM,150 µM,–,–,–,–
CC(CC1CCCCC1)NCc1ccccc1OCc1cscn1 (centres unmarked) [B292],150 µM,> 150 µM,–,–,4 µM,> 150 µM,–,–
